Molecular target: aryl hydrocarbon receptor (AhR) (Mus musculus (Mouse), UniProt P30561)
Experiment: AhR ligand screening: AhRE-luciferase reporter in transfected Hepa1 cells
Format: cell-based
Settings: for Fold @ 1 nM: fold change of luciferase expression at 1 nM test compound relative to vehicle (0.1% DMSO); for Fold @ 100 nM: fold change of luciferase expression at 100 nM test compound relative to vehicle (0.1% DMSO); for Fold @ 10 uM: fold change of luciferase expression at 10 uM test compound relative to vehicle (0.1% DMSO); for Fold relative to benchmark @ 100 nM: luciferase expression at 100 nM test compound relative to 100 nM benchmark compound 11-cl-BBQ
Excerpt: The AhR is a ligand-activated transcription factor that dimerizes with ARNT to regulate gene expression, and genes that are regulated by AhR ligands have AhR response elements (AhRE) in their promotor regions.
Briefly, Hepa1 cells were transfected with a reporter construct consisting of AhRE linked to luciferase. The addition of AhR ligands to the transfected cells induces luciferase production that is directly proportional to the amount of AhR activation. We used this reporter system to identify novel compounds with AhR-activating properties. Transfected Hepa1 cells were plated at a density of 1×10^4 cells/well in 100 μL of cell culture media in 96 well plates and grown overnight. […] Following incubation with the compounds, the media was removed, and cells were harvested with lysis buffer. The lysates were transferred to opaque 96 well plates, where they were assayed well-by-well for luciferase activity by injection of luciferase assay substrate with a 2 sec mixing time and 15 sec integration period on a Tropix TR717 microplate luminometer. Data were expressed as fold induction of luciferase relative to vehicle (0.1% DMSO) treated cells.

Chain of aryl hydrocarbon receptor (AhR) (P30561 10-805): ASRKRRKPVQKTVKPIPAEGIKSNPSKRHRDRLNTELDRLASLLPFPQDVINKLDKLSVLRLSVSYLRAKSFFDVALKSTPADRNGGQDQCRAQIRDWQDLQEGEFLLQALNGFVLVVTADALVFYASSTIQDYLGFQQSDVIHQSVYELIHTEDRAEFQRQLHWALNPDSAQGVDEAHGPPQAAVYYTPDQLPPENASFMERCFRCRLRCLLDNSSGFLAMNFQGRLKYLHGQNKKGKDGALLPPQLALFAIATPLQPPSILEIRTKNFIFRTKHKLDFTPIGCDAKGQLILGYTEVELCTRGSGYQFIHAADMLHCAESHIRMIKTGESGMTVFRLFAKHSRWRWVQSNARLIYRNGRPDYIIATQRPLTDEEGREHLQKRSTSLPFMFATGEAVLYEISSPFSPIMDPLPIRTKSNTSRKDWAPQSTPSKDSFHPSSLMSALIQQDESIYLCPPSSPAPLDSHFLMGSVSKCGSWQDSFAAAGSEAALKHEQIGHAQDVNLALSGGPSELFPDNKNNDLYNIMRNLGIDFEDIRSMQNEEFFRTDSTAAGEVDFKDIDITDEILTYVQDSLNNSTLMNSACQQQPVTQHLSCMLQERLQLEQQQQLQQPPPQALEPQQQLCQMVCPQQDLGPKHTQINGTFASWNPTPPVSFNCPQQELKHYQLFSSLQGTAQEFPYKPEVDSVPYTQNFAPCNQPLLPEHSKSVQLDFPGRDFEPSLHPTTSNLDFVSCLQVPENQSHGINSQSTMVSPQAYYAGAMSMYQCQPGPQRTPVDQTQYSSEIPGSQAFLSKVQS
Chain of aryl hydrocarbon receptor (AhR) (P53762 whole entry partner): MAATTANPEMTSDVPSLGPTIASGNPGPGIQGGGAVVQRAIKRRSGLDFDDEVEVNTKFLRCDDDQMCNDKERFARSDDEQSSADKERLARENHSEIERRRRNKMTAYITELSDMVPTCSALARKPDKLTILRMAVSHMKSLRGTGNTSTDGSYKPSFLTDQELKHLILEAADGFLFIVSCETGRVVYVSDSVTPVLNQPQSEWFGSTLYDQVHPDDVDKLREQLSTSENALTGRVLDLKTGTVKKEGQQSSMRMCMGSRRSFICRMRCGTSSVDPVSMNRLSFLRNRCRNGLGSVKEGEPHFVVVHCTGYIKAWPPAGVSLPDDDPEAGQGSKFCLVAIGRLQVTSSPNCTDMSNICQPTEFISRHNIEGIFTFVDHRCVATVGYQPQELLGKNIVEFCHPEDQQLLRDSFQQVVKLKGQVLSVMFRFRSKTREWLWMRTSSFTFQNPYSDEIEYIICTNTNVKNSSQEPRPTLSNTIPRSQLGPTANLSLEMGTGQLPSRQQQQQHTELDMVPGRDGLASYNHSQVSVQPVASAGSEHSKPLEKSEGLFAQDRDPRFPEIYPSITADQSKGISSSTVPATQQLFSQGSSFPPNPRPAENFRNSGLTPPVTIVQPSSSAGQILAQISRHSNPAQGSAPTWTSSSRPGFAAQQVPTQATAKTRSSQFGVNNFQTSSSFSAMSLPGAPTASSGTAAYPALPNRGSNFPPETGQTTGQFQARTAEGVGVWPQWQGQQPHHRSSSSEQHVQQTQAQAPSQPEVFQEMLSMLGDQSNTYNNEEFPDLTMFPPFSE

| SMILES | Fold @ 1 nM | Fold @ 100 nM | Fold @ 10 uM | Fold relative to benchmark @ 100 nM |
| --- | --- | --- | --- | --- |
| O=C(c1ccccc1)n1c(-c2cccc(C(F)(F)F)c2)nc2cc(Cl)ccc21 [Compound 763] | 1 fold | 2 fold | 22 fold | 0.08 fold |
| O=C(c1ccc(F)c(F)c1)n1c(-c2cccc3ccccc23)nc2cc(Cl)c(Cl)cc21 [Compound 692] | 3 fold | 24 fold | 85 fold | 0.92 fold |
| COc1ccc(-c2nc3ccc(Cl)cc3n2C(=O)c2ccccc2)cc1 [Compound 497] | 1 fold | 1.5 fold | 3.5 fold | 0.05 fold |
| O=C(c1ccc2c(c1)nc(-c1cccc3ccccc13)n2Cc1ccc(F)c(F)c1)N1CCOCC1 [Compound 1329] | 1 fold | 1 fold | 1 fold | 0.03 fold |
| O=c1c2cccc3cccc(c32)c2nc3ccccc3n12 [Compound 523] | 1.8 fold | 11.5 fold | 12 fold | 0.82 fold |
| COC(=O)c1ccc2c(c1)nc(-c1cccc3ccccc13)n2S(=O)(=O)c1ccc(C#N)cc1 [Compound 1361] | 1 fold | 2 fold | 2 fold | 0.07 fold |
| COC(=O)c1ccc2c(c1)nc(-c1cccc3ccccc13)n2S(=O)(=O)c1ccc(Cl)cc1 [Compound 1385] | 1 fold | 2 fold | 5 fold | 0.07 fold |
| Clc1ccc2c(c1)nc(-c1cccc3ccccc13)n2Cc1ccnc2ccccc12 [Compound 867] | 1 fold | 2 fold | 32 fold | 0.07 fold |
| Cc1ccc(S(=O)(=O)n2c(-c3cccc4ccccc34)nc3cc(F)ccc32)cc1 [Compound 631, 5-fluoro-2-(naphthalen-1-yl)-1-tosyl-1H-benzo[d]imidazole] | 1 fold | 1 fold | 7 fold | 0.11 fold |
| O=C(c1ccc(F)c(F)c1)n1c(-c2cccc(C(F)(F)F)c2Cl)nc2cc(Cl)ccc21 [Compound 875] | 1 fold | 3 fold | 48 fold | 0.06 fold |
| COc1ccc(C(=O)n2c(-c3cc4ccccc4s3)nc3cc(Cl)ccc32)cc1 [Compound 590] | 1 fold | 3 fold | 45 fold | 0.2 fold |
| COc1ccccc1S(=O)(=O)n1c(-c2cccc3ccccc23)nc2cc(C(=O)N3CCCCC3)ccc21 [Compound 1390] | 1 fold | 1 fold | 3 fold | 0.03 fold |
| O=C(c1ccccc1)n1c(-c2ccc3ccccc3c2)nc2ccc(F)cc21 [Compound 585] | 1 fold | 1 fold | 34 fold | 0.07 fold |
| O=C(c1ccc(F)c(F)c1)n1c(-c2ccc3ccccc3c2)nc2cc(Cl)ccc21 [Compound 684] | 1 fold | 2 fold | 56 fold | 0.08 fold |
| COc1ccc(C(=O)n2c(-c3cccc4ccccc34)nc3cc(Cl)ccc32)cc1OC [Compound 682] | 1 fold | 18 fold | 32 fold | 0.69 fold |
| Cc1ccc(S(=O)(=O)n2c(-c3cccc4ccccc34)nc3ccccc32)cc1 [Compound 579] | 1 fold | 1 fold | 2 fold | 0.07 fold |

Reference: patent US12473262B2, “Aryl hydrocarbon receptor activators” (Oregon State University, priority 2019, dated 2025)
